The source of these data is patent publication US20180243325A1, “METHOD FOR INHIBITING ABSORPTION OF AND/OR PROMOTING EXCRETION OF LIPIDS USING D-PSICOSE” (CJ CHEILJEDANG CORPORATION, priority 2015, published 2018).

Each structure is given as a SMILES string.

Common to all, as to format: in vivo, C57BL/6J mice
The subject of assay [1] is fatty acid synthase (FAS). The experiment in a line: Hepatic lipid regulating enzyme activity: FAS. The note with it: FIG. 4B, liver cytoplasmic fraction, HFD+5% w/w in diet, 16 weeks. On the procedure:
(§1) First, 4-week-old male C57BL/6J mice (60 total) were purchased from Jackson Laboratory. The animals were acclimated to the vivarium in a thermo-hygrostat (20-23° C., 45-65%) under a 12 h light/dark cycle and fed a pelletized commercial non-purified diet for 1 week after arrival. The mice were then randomly divided into 6 groups (n=10) and fed the respective experimental diets for 16 weeks: normal diet group (ND, American Institute of Nutrition (AIN)-76 semi-synthetic diet), high-fat diet group (HFD, 20% fat+1% cholesterol based on AIN-76 diet), PSI group (HFD+5% D-psicose, w/w, Sigma Chemical Company), ERY group (HFD+5% erythritol, w/w, Sigma Chemical Company), GLU group (HFD+5% D-glucose, w/w, Sigma Chemical Company), and FRU group (HFD+5% D-fructose, w/w, Sigma Chemical Company). All high-fat diet-fed groups were allowed to ingest the same calories by pair feeding based on the PSI group. The mice had ad libitum access to distilled water during the experimental period. Their feed intakes and body weights were measured daily and biweekly, respectively. The organ weights and the adipose tissue weights of the mice were measured after sacrificing the animals. Samples were prepared and analyzed according to the method developed by Hulcher and Oleson. Specifically, the activity of fatty acid synthase (FAS) as a hepatic lipid regulating enzyme was measured by spectrophotometric assay according to the method described by Nepokroeff et al. Each sample was mixed with 100 μl of cytoplasmic fraction and the mixture was allowed to react at 30° C. for 2 min. A reduction in absorbance at 340 nm was measured. Fatty acid synthase (FAS) activity units were expressed as nanomoles (nmol) of NADPH oxidized for 1 min per mg of cytoplasmic fraction. Fatty acid β-oxidation activity was measured by monitoring the reduction of NAD^+ to NADH in the presence of palmitoyl-CoA, as described by Lazarow. β-oxidation activity units were expressed as nanomoles (nmol) of NADH produced for 1 min per mg of mitochondrial protein.

For another assay, the system named is Fatty acid β-oxidation. The experiment in a line: Hepatic fatty acid β-oxidation activity. The note with it: FIG. 4B, liver, HFD+5% w/w in diet, 16 weeks. On the procedure:
as §1

Assay [2] concerns ACC1 (Acetyl-CoA carboxylase 1, 107476). Kind of assay: Hepatic mRNA expression, real-time quantitative PCR: ACC1. The note with it: FIG. 6, liver, HFD+5% w/w in diet, 16 weeks. How it is done:
First, 4-week-old male C57BL/6J mice (60 total) were purchased from Jackson Laboratory. The animals were acclimated to the vivarium in a thermo-hygrostat (20-23° C., 45-65%) under a 12 h light/dark cycle and fed a pelletized commercial non-purified diet for 1 week after arrival. The mice were then randomly divided into 6 groups (n=10) and fed the respective experimental diets for 16 weeks: normal diet group (ND, American Institute of Nutrition (AIN)-76 semi-synthetic diet), high-fat diet group (HFD, 20% fat+1% cholesterol based on AIN-76 diet), PSI group (HFD+5% D-psicose, w/w, Sigma Chemical Company), ERY group (HFD+5% erythritol, w/w, Sigma Chemical Company), GLU group (HFD+5% D-glucose, w/w, Sigma Chemical Company), and FRU group (HFD+5% D-fructose, w/w, Sigma Chemical Company). All high-fat diet-fed groups were allowed to ingest the same calories by pair feeding based on the PSI group. The mice had ad libitum access to distilled water during the experimental period. Their feed intakes and body weights were measured daily and biweekly, respectively. The organ weights and the adipose tissue weights of the mice were measured after sacrificing the animals.
Samples were prepared and analyzed as previously described. Specifically, total RNA was synthesized into cDNA using a QuantiTect Reverse Transcription kit (QIAGEN Gmb1h, Hilden, Germany). RNA expression was quantified with real-time quantitative PCR using a QuantiTect SYBR Green PCR kit (QIAGEN Gmb1h, Hilden, Germany). Primers were designed to detect FAS (fatty acid synthase, 14101), ACC1 (Acetyl-CoA carboxylase 1, 107476), CPT1α (Carnitine palmitoyltransferase 1α, 12894), and CPT2 (Carnitine palmitoyltransferase 2, 12896). GAPDH was used as an internal transcription marker. The reaction was performed a total of 40 cycles (each consisting of 15 sec at 94° C., 30 sec at 58° C., 30 sec at 72° C., and 15 sec at 65° C.). Fluorescence signals were monitored every cycle and the resulting threshold cycles (Ct) were analyzed. mRNA expression in each experimental group was quantified using a CFX96 Real time system (Bio-rad, USA).

Assay [3] concerns ABCG5 (ATP-binding cassette sub-family G member5, 27409). The experiment in a line: Small intestine mRNA expression, real-time quantitative PCR: ABCG5. The note with it: high-fat diet-fed obese mice. On the procedure:
(§2) First, 4-week-old male C57BL/6J mice (60 total) were purchased from Jackson Laboratory. The animals were acclimated to the vivarium in a thermo-hygrostat (20-23° C., 45-65%) under a 12 h light/dark cycle and fed a pelletized commercial non-purified diet for 1 week after arrival. […] Their feed intakes and body weights were measured daily and biweekly, respectively. The organ weights and the adipose tissue weights of the mice were measured after sacrificing the animals.
(§3) Samples were prepared and analyzed as previously described. Specifically, total RNA was synthesized into cDNA using a QuantiTect Reverse Transcription kit (QIAGEN Gmb1h, Hilden, Germany). RNA expression was quantified with real-time quantitative PCR using a QuantiTect SYBR Green PCR kit (QIAGEN Gmb1h, Hilden, Germany). […] Fluorescence signals were monitored every cycle and the resulting threshold cycles (Ct) were analyzed. mRNA expression in each experimental group was quantified using a CFX96 Real time system (Bio-rad, USA).

Assay [4] has as its system ABCG8 (ATP-binding cassette sub-family G member8, 67470). Kind of assay: Small intestine mRNA expression, real-time quantitative PCR: ABCG8. The note with it: high-fat diet-fed obese mice. How it is done: as §2, §3

Take `OC[C@@H](O)[C@@H](O)CO` [ERY, erythritol]: in assay [1], the “hepatic FAS activity” value is recorded as “increased significantly compared to those in the ND group”. Further, the “hepatic fatty acid β-oxidation activity” value in the assay with Fatty acid β-oxidation is reported as “increased significantly compared to those in the ND group”. In addition, in assay [2], the “hepatic mRNA expression level of ACC1” value was “significantly lower than those in the ND group”.
As to `O=C(CO)[C@@H](O)[C@H](O)[C@H](O)CO` [FRU, D-fructose], in assay [1], the “hepatic FAS activity” value was “increased significantly compared to those in the ND group”. In addition, in the assay with Fatty acid β-oxidation, the “hepatic fatty acid β-oxidation activity” value is on record as “increased significantly compared to those in the ND group”. For the same molecule, in assay [2], the “hepatic mRNA expression level of ACC1” value is given as “significantly lower than those in the ND group”.
Consider `O=C[C@H](O)[C@@H](O)[C@H](O)[C@H](O)CO` [GLU, D-glucose], for which the “hepatic FAS activity” value in assay [1] is reported as “increased significantly compared to those in the ND group”. Also, the “hepatic fatty acid β-oxidation activity” value in the assay with Fatty acid β-oxidation was “increased significantly compared to those in the ND group”. The “hepatic mRNA expression level of ACC1” value in assay [2] is “significantly lower than those in the ND group”.
For the molecule `O=C(CO)[C@H](O)[C@H](O)[C@H](O)CO` [PSI, D-psicose], the “hepatic FAS activity” value in assay [1] is “decreased significantly compared to those in other high-fat diet groups”. In the assay with Fatty acid β-oxidation, the “hepatic fatty acid β-oxidation activity” value is given as “decreased significantly compared to those in other high-fat diet groups”. Also, the “hepatic mRNA expression level of ACC1” value in assay [2] is “much significantly lower than those in the ND group”. Besides, the “mRNA expression of ABCGS (gene involved in lipid excretion)” value in assay [3] is on record as “reduces mRNA expression”. Further, the “mRNA expression of ABCG8 (gene involved in lipid excretion)” value in assay [4] is “reduces mRNA expression”.
